From patent US9534035B2, “Cell lines expressing ENaC and methods using them” (priority 2008, dated 2017)
“Also recorded” adds a separate entry of the source. Where two headings read alike, the source gives them in different places.

Tests used:
Assay type in all cases: cell-based
[1] = test system: proteolytically cleaved ENaC isoforms; test: dose response of inhibitors across trypsin concentrations, membrane potential FDSS protocol; details: FIG. 9, trypsin 0 to 2.25 mg/ml, IC50 plotted against protease concentration
Protocol: We also tested the ability of novel ENaC inhibitors (identified in Example 4) to inhibit proteolytically cleaved ENaC. […] The cells were loaded with membrane potential dye concurrently with the trypsin. […] values were calculated and plotted as a function of protease concentration. […] The different isoforms of ENaC can be pursed in drug discovery to more effectively address the role of the different isoforms of ENaC or the effect or role of proteolysis in disease.

proteolyzed ENaC Form 24 = test: membrane potential assay, trypsin-treated ENaC cells; details: FIG. 8 dose response
Protocol: After a 1 hour incubation with a dye-protease solution at room temperature, the assay was run using the FDSS (Hamamatsu Corporation) as described above.
The experiment was performed using several treatment groups, each receiving a different concentration of trypsin (0 to 3 mg/ml). The cells were incubated with the trypsin for 1 hour at room temperature concurrently with membrane potential dye (standard protocol). […] We further characterized these proteolytically modified isoforms for their ability to conduct sodium.
The isoform specific assay described above was performed with MBP dye solution with trypsin concentrations as listed (Table 2).

ENaC = target: T1, ENaC (Homo sapiens, UniProt P37088+P51168+P51170, A314G); test: membrane potential assay with stable ENaC cell line (CHO)
T1 construct: expressed in transfected cells
T1 sequence (P37088 1-669): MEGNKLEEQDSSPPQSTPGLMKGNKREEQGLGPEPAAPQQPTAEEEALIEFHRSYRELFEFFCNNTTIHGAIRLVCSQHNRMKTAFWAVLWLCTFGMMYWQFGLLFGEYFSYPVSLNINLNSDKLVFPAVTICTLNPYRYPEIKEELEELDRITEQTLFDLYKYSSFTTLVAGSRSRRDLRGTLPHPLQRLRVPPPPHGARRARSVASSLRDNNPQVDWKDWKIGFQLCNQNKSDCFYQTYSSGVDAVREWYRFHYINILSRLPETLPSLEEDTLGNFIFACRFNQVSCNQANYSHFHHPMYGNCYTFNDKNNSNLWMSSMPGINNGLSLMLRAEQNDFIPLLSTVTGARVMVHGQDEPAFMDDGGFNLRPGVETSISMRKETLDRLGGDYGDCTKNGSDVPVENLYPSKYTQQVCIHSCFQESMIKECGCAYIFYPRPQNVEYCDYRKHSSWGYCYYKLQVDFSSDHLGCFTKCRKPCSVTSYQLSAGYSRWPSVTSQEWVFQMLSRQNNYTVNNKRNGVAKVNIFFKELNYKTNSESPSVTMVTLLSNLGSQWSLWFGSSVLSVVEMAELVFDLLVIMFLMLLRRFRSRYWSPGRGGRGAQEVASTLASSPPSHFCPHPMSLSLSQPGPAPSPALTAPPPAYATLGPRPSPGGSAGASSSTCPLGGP
T1 sequence (P51168 1-640 A314G): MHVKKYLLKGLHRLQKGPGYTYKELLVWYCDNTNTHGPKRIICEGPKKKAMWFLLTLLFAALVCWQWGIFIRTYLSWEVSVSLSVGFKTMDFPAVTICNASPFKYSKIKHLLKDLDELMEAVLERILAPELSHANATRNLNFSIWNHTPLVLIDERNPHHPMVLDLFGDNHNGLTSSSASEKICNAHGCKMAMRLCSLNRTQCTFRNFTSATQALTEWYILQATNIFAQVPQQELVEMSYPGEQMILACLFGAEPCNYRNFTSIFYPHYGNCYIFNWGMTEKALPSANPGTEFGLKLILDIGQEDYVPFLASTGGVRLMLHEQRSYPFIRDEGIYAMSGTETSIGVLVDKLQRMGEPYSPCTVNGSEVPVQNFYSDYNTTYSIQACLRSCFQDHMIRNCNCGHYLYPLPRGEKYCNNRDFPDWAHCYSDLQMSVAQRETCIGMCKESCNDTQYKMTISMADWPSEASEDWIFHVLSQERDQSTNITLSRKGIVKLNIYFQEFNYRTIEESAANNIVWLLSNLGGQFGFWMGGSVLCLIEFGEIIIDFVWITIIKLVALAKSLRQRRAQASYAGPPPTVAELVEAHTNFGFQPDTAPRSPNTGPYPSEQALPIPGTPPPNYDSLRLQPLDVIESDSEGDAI
T1 sequence (P51170 1-649): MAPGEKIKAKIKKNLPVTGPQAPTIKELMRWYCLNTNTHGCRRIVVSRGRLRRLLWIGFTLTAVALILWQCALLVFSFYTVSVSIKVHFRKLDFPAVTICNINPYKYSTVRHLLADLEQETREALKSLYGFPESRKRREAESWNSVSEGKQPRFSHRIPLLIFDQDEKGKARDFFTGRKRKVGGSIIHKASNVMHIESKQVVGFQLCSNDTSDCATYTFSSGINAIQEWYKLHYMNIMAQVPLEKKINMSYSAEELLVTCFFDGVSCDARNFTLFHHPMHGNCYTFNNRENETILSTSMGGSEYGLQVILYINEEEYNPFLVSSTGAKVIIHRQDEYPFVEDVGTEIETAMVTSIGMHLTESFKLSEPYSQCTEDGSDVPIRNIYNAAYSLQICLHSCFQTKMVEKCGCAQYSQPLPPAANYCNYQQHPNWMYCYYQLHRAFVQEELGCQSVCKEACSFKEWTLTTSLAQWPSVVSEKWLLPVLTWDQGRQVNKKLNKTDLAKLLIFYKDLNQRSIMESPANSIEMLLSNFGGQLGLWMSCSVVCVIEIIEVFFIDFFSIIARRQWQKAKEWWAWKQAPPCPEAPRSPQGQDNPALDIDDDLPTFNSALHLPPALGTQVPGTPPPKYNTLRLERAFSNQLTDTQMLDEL
Protocol: The influx of positively-charged sodium ions following the activation of ENaC results in a change in the membrane potential of the cell. To test the activity of ENaC cell lines, we used a membrane potential assay. Such assays are well known in the art. […] Rev. Biophys. […]
The assay plates were maintained in a 37° C. cell culture incubator under 5% CO2 for 19-21 hours. The media was then removed from the assay plates and 20 μl blue membrane potential dye (Molecular Devices Inc) was added and the cells were incubated for 1 hr at room temperature. Test compounds were solubilized in dimethylsulfoxide, diluted in a phosphate buffer and loaded into 384 well polypropylene micro-titer plates. The cell and compound plates were loaded into an FDSS instrument (Hamamatsu) which measures fluorescence (relative fluorescence units) from the plates over time. Fluorescence values were continuously collected from the beginning of the experiment and following addition of test compounds to report baseline values and any changes due to the addition of test compounds. Test compounds in assay buffer or assay buffer alone were then added to the cells and flluorescence values were collected for two minutes.

[2] = ENaC cell line maintained in 90 mM sodium media, read-out: EC50 (approx)
[3] = ENaC cell line maintained in 150 mM sodium media, read-out: EC50 (approx)
[4] = a cell line of the invention, general statement, read-out: EC50

| Compound | inhibition of proteolytically cleaved ENaC isoforms [1] | inhibition of cleaved ENaC form 24 (proteolyzed ENaC Form 24) | block of the sodium response (ENaC) | inhibition of uncleaved (non-proteolyzed) ENaC (ENaC) | EC50 (ENaC; [2]) [mM] | EC50 (ENaC; [3]) [mM] | EC50 (ENaC; [4]) [mM] | EC50 (ENaC; FIG. 4, read-out: EC50) [mM] |
| --- | --- | --- | --- | --- | --- | --- | --- | --- |
| N=C(N)NC(=O)c1nc(Cl)c(N)nc1N [Amiloride, amiloride] | inhibit a unique subset of ENaC isoforms | much less effective or not effective; also recorded: not effective to inhibit Form 24 | essentially all of the sodium response was blocked | effectively inhibits; also recorded: almost completely inhibit | – | – | – | – |
| [Cl-].[Li+] [LiCl, lithium chloride] | – | – | – | – | ~33 | ~82 | ~35 | – |
| [Cl-].[Na+] [NaCl, sodium chloride] | – | – | – | – | ~48 | ~80 | ~50 | 48 |
